Results taken from patent US9409905B2, “Antibacterial compounds and methods for use” (PTC THERAPEUTICS, INC., priority 2011, dated 2016).
Converted amounts (≈) assume the structure as drawn.

How the values were obtained:
[1] = system: Escherichia coli (E. coli) BAS849; assay: Antibacterial activity, microbroth dilution MIC (Table 1); assay type: cell-based; details: microbroth dilution, super sensitive Gram-negative E. coli BAS849, read-out: MIC, BAS849
In short: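 Read-out: visual absence of growth. The lowest concentration meeting this gives the MIC, expressed in μg/mL, with microbroth dilution as the method.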

[2] = system: Staphylococcus aureus (S. aureus) 29213; assay: as above; assay type: cell-based; details: microbroth dilution, Gram-positive S. aureus 29213, read-out: MIC, 29213
In short: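 Using broth microdilution, MIC endpoints (μg/mL) mark where visible growth no longer appears; the panel spans sensitive and control Gram-negative strains plus a Gram-positive strain.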

E. coli 25922 = assay: as above; assay type: cell-based, Escherichia coli; details: Escherichia coli; microbroth dilution; control Gram-negative E. coli 25922 strain; read-out: MIC, 25922
In short: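 Each strain is exposed to test compound in a microbroth dilution series; visible growth is scored macroscopically, and the lowest growth-free concentration is recorded as MIC in μg/mL.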

E. coli LZ3111 = assay: Antibacterial activity, MIC, quinolone resistant strain (Table 2); assay type: cell-based; details: Escherichia coli, LZ3111, read-out: MIC LZ3111
In short: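 Broth microdilution. Read-out: MIC in μg/mL, taken as lowest concentration with no macroscopically visible growth.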

[3] = system: Acinetobacter baumannii (A. baumannii) BAA747; assay: Antibacterial activity, MIC (Table 4); assay type: cell-based; details: A. baumannii BAA747, read-out: MIC, BAA747
In short: (§1)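 MIC in μg/mL by microbroth dilution, scored as the lowest level that suppresses visible growth.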

[4] = system: Klebsiella pneumoniae (K. pneumoniae) 35657; assay: Antibacterial activity, MIC (Table 4); assay type: cell-based; details: K. pneumoniae 35657, read-out: MIC, 35657
In short: as §1

A. baumannii MXX2240 = assay: Antibacterial activity, MIC, resistant strain (Table 4); assay type: cell-based; details: Acinetobacter baumannii, MXX2240; resistant A. baumannii MMX2240, multi-drug resistant clinical isolate; read-out: MIC, MMX2240
In short: as §1

K. pneumoniae MXX1232 = assay: as above; assay type: cell-based; details: Klebsiella pneumoniae, MXX1232; resistant K. pneumoniae MMX1232, multi-drug resistant clinical isolate; read-out: MIC, MMX1232
In short: as §1

[5] = system: Pseudomonas aeruginosa (P. aeruginosa) 27853; assay: Antibacterial activity, MIC (Table 5); assay type: cell-based; details: P. aeruginosa 27853, read-out: MIC, 27853
In short: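 Microbroth dilution; MIC (μg/mL) = lowest concentration with no macroscopically visible growth.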

SMILES: Cn1ccc2cc(-c3[nH]c(=O)c(C(=O)O)c(O)c3Cl)ccc21 [Cpd 376, 5-chloro-4-hydroxy-6-(1-methyl-1H-indol-5-yl)-2-oxo-1,2-dihydropyridine-3-carboxylic acid]
- MIC [1]: 3.5 to 12.5 mg/L (≈ 11 to 39.2 µM)
- MIC [2]: 12.5 to 150 mg/L (≈ 39.2 to 471 µM)
- MIC (E. coli 25922): 12.5 to 150 mg/L (≈ 39.2 to 471 µM)
- MIC (E. coli LZ3111): 12.5 to 150 mg/L (≈ 39.2 to 471 µM)
- MIC [3]: 12.5 to 150 mg/L (≈ 39.2 to 471 µM)
- MIC [4]: 12.5 to 150 mg/L (≈ 39.2 to 471 µM)
- MIC (A. baumannii MXX2240): 12.5 to 150 mg/L (≈ 39.2 to 471 µM)
- MIC (K. pneumoniae MXX1232): 12.5 to 150 mg/L (≈ 39.2 to 471 µM)
- MIC [5]: 12.5 to 150 mg/L (≈ 39.2 to 471 µM)

SMILES: COc1c(-c2ccc3c(ccn3C)c2)[nH]c(=O)c(C(=O)O)c1O [Cpd 377, 4-hydroxy-5-methoxy-6-(1-methyl-1H-indol-5-yl)-2-oxo-1,2-dihydropyridine-3-carboxylic acid]
- MIC [1]: < 1 mg/L
- MIC [2]: 12.5 to 150 mg/L (≈ 39.8 to 477 µM)
- MIC (E. coli 25922): 12.5 to 150 mg/L (≈ 39.8 to 477 µM)
- MIC (E. coli LZ3111): 3.5 to 12.5 mg/L (≈ 11.1 to 39.8 µM)
- MIC [3]: 12.5 to 150 mg/L (≈ 39.8 to 477 µM)
- MIC [4]: 12.5 to 150 mg/L (≈ 39.8 to 477 µM)
- MIC (A. baumannii MXX2240): 3.5 to 12.5 mg/L (≈ 11.1 to 39.8 µM)
- MIC (K. pneumoniae MXX1232): 12.5 to 150 mg/L (≈ 39.8 to 477 µM)
- MIC [5]: 12.5 to 150 mg/L (≈ 39.8 to 477 µM)

SMILES: CCOc1c(-c2ccc3c(ccn3C)c2)[nH]c(=O)c(C(=O)O)c1O [Cpd 378, 4-hydroxy-5-ethoxy-6-(1-methyl-1H-indol-5-yl)-2-oxo-1,2-dihydropyridine-3-carboxylic acid]
- MIC [1]: 3.5 to 12.5 mg/L (≈ 10.7 to 38.1 µM)
- MIC [2]: 12.5 to 150 mg/L (≈ 38.1 to 457 µM)
- MIC (E. coli 25922): 12.5 to 150 mg/L (≈ 38.1 to 457 µM)
- MIC (E. coli LZ3111): 3.5 to 12.5 mg/L (≈ 10.7 to 38.1 µM)
- MIC [3]: 12.5 to 150 mg/L (≈ 38.1 to 457 µM)
- MIC [4]: 12.5 to 150 mg/L (≈ 38.1 to 457 µM)
- MIC (A. baumannii MXX2240): 3.5 to 12.5 mg/L (≈ 10.7 to 38.1 µM)
- MIC (K. pneumoniae MXX1232): 12.5 to 150 mg/L (≈ 38.1 to 457 µM)
- MIC [5]: 12.5 to 150 mg/L (≈ 38.1 to 457 µM)

SMILES: CCc1c(-c2cc3ccc(OC)cc3[nH]2)[nH]c(=O)c(C(=O)O)c1O [Cpd 379, 5-ethyl-4-hydroxy-6-(6-methoxy-1H-indol-2-yl)-2-oxo-1,2-dihydropyridine-3-carboxylic acid]
- MIC [1]: 3.5 to 12.5 mg/L (≈ 10.7 to 38.1 µM)
- MIC [2]: 12.5 to 150 mg/L (≈ 38.1 to 457 µM)
- MIC (E. coli 25922): 12.5 to 150 mg/L (≈ 38.1 to 457 µM)
- MIC (E. coli LZ3111): 12.5 to 150 mg/L (≈ 38.1 to 457 µM)
- MIC [3]: 12.5 to 150 mg/L (≈ 38.1 to 457 µM)
- MIC [4]: 12.5 to 150 mg/L (≈ 38.1 to 457 µM)
- MIC (A. baumannii MXX2240): 12.5 to 150 mg/L (≈ 38.1 to 457 µM)
- MIC (K. pneumoniae MXX1232): 12.5 to 150 mg/L (≈ 38.1 to 457 µM)
- MIC [5]: 12.5 to 150 mg/L (≈ 38.1 to 457 µM)

SMILES: CCc1c(-c2cc3cc(F)ccc3[nH]2)[nH]c(=O)c(C(=O)O)c1O [Cpd 380, 5-ethyl-6-(5-fluoro-1H-indol-2-yl)-4-hydroxy-2-oxo-1,2-dihydropyridine-3-carboxylic acid]
- MIC [1]: 3.5 to 12.5 mg/L (≈ 11.1 to 39.5 µM)
- MIC [2]: 12.5 to 150 mg/L (≈ 39.5 to 474 µM)
- MIC (E. coli 25922): 12.5 to 150 mg/L (≈ 39.5 to 474 µM)
- MIC (E. coli LZ3111): 12.5 to 150 mg/L (≈ 39.5 to 474 µM)
- MIC [3]: 12.5 to 150 mg/L (≈ 39.5 to 474 µM)
- MIC [4]: 12.5 to 150 mg/L (≈ 39.5 to 474 µM)
- MIC (A. baumannii MXX2240): 12.5 to 150 mg/L (≈ 39.5 to 474 µM)
- MIC (K. pneumoniae MXX1232): 12.5 to 150 mg/L (≈ 39.5 to 474 µM)
- MIC [5]: 12.5 to 150 mg/L (≈ 39.5 to 474 µM)

SMILES: CCc1ccc2[nH]c(-c3[nH]c(=O)c(C(=O)O)c(O)c3CC)cc2c1 [Cpd 381, 5-ethyl-6-(5-ethyl-1H-indol-2-yl)-4-hydroxy-2-oxo-1,2-dihydropyridine-3-carboxylic acid]
- MIC [1]: < 1 mg/L
- MIC [2]: 3.5 to 12.5 mg/L (≈ 10.7 to 38.3 µM)
- MIC (E. coli 25922): 12.5 to 150 mg/L (≈ 38.3 to 460 µM)
- MIC (E. coli LZ3111): 12.5 to 150 mg/L (≈ 38.3 to 460 µM)
- MIC [3]: 12.5 to 150 mg/L (≈ 38.3 to 460 µM)
- MIC [4]: 12.5 to 150 mg/L (≈ 38.3 to 460 µM)
- MIC (A. baumannii MXX2240): 12.5 to 150 mg/L (≈ 38.3 to 460 µM)
- MIC (K. pneumoniae MXX1232): 12.5 to 150 mg/L (≈ 38.3 to 460 µM)
- MIC [5]: 12.5 to 150 mg/L (≈ 38.3 to 460 µM)

SMILES: CCc1ccc2cc(-c3[nH]c(=O)c(C(=O)O)c(O)c3CC)[nH]c2c1 [Cpd 382, 5-ethyl-6-(6-ethyl-1H-indol-2-yl)-4-hydroxy-2-oxo-1,2-dihydropyridine-3-carboxylic acid]
- MIC [1]: < 1 mg/L
- MIC [2]: 3.5 to 12.5 mg/L (≈ 10.7 to 38.3 µM)
- MIC (E. coli 25922): 12.5 to 150 mg/L (≈ 38.3 to 460 µM)
- MIC (E. coli LZ3111): 12.5 to 150 mg/L (≈ 38.3 to 460 µM)
- MIC [3]: 12.5 to 150 mg/L (≈ 38.3 to 460 µM)
- MIC [4]: 12.5 to 150 mg/L (≈ 38.3 to 460 µM)
- MIC (A. baumannii MXX2240): 12.5 to 150 mg/L (≈ 38.3 to 460 µM)
- MIC (K. pneumoniae MXX1232): 12.5 to 150 mg/L (≈ 38.3 to 460 µM)
- MIC [5]: 12.5 to 150 mg/L (≈ 38.3 to 460 µM)

SMILES: CCCc1ccc2[nH]c(-c3[nH]c(=O)c(C(=O)O)c(O)c3CC)cc2c1 [Cpd 383, 5-ethyl-4-hydroxy-2-oxo-6-(5-propyl-1H-indol-2-yl)-1,2-dihydropyridine-3-carboxylic acid]
- MIC [1]: < 1 mg/L
- MIC [2]: 3.5 to 12.5 mg/L (≈ 10.3 to 36.7 µM)
- MIC (E. coli 25922): 12.5 to 150 mg/L (≈ 36.7 to 441 µM)
- MIC (E. coli LZ3111): 12.5 to 150 mg/L (≈ 36.7 to 441 µM)
- MIC [3]: 12.5 to 150 mg/L (≈ 36.7 to 441 µM)
- MIC [4]: 12.5 to 150 mg/L (≈ 36.7 to 441 µM)
- MIC (A. baumannii MXX2240): 12.5 to 150 mg/L (≈ 36.7 to 441 µM)
- MIC (K. pneumoniae MXX1232): 12.5 to 150 mg/L (≈ 36.7 to 441 µM)
- MIC [5]: 12.5 to 150 mg/L (≈ 36.7 to 441 µM)

SMILES: CCCc1ccc2cc(-c3[nH]c(=O)c(C(=O)O)c(O)c3CC)[nH]c2c1 [Cpd 384, 5-ethyl-4-hydroxy-2-oxo-6-(6-propyl-1H-indol-2-yl)-1,2-dihydropyridine-3-carboxylic acid]
- MIC [1]: < 1 mg/L
- MIC [2]: 12.5 to 150 mg/L (≈ 36.7 to 441 µM)
- MIC (E. coli 25922): 12.5 to 150 mg/L (≈ 36.7 to 441 µM)
- MIC (E. coli LZ3111): 12.5 to 150 mg/L (≈ 36.7 to 441 µM)
- MIC [3]: 12.5 to 150 mg/L (≈ 36.7 to 441 µM)
- MIC [4]: 12.5 to 150 mg/L (≈ 36.7 to 441 µM)
- MIC (A. baumannii MXX2240): 12.5 to 150 mg/L (≈ 36.7 to 441 µM)
- MIC (K. pneumoniae MXX1232): 12.5 to 150 mg/L (≈ 36.7 to 441 µM)
- MIC [5]: 12.5 to 150 mg/L (≈ 36.7 to 441 µM)
